ChEMBL document CHEMBL1134144, “Macrocyclization in the design of a conformationally constrained Grb2 SH2 domain inhibitor” (Bioorg Med Chem Lett, 2001)

target: Growth factor receptor-bound protein 2 (Homo sapiens, UniProt P62993); assay: Inhibition of Growth factor receptor bound protein 2 SH2 domain binding in ELISA
Sequence (P62993 whole entry, the tested form may be a part): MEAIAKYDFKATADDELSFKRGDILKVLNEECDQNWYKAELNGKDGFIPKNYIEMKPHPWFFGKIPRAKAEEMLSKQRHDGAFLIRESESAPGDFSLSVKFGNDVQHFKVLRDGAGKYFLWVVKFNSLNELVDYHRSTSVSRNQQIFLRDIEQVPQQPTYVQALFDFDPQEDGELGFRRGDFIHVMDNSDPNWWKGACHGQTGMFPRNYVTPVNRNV

SMILES	IC50 [nM]
CC(=O)N[C@@H](Cc1ccc(CP(=O)(O)O)cc1)C(=O)NC1(C(=O)N[C@@H](CC(N)=O)C(=O)NCCCc2cccc3ccccc23)CCCCC1	55
NC(=O)C[C@@H]1NC(=O)C2(CCCCC2)NC(=O)C[C@@H](c2ccc(CP(=O)(O)O)cc2)/C=C/C[C@@H](Cc2cccc3ccccc23)CNC1=O	20
NC(=O)C[C@H](NC(=O)C1(NC(=O)CCc2ccc(CP(=O)(O)O)cc2)CCCCC1)C(=O)NCCCc1cccc2ccccc12	2000
NC(=O)C[C@H](NC(=O)C1(NC(=O)[C@H](Cc2ccc(CP(=O)(O)O)cc2)NC(=O)C(=O)O)CCCCC1)C(=O)NCCCc1cccc2ccccc12	20
